The values below come from ChEMBL document CHEMBL1201862, “PubChem BioAssay data set” (2004).

Among the test systems are SF-539; UACC-62; HCT-116; RXF 393; NCI/ADR-RES; TK-10; A498; MDA-N; SN12C; CAKI-1; 786-0; IGROV-1; NCI-H522; K562; A549; M14; LOX IMVI; CCRF-CEM; HOP-62; UO-31.
Experiment in all cases: NCI tumour cell line growth inhibition, 48 h

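Tested at 5 concentrations; 48 h exposure; 96-well plates; endpoints linearly interpolated, else capped at highest concentration. GI50 is the concentration that inhibits growth by half.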 Activity calls are given as the source filed them. Cut-off read from the data, not from the text of the source: active = GI50 up to about 1.1 µM and inactive = higher. Where only a bound is given, the exact number is not on record here.

For `CC(=O)OCCOCn1cc(C=O)c2ccccc21`, the GI50 in the test on SF-539, in the test on UACC-62, with HCT-116, in the test on RXF 393, in the test on NCI/ADR-RES and in the test with TK-10 was > 100 µM (inactive) in each case. The GI50 in the test with A498 was 1.95 µM (inactive); in the test on MDA-N it was > 100 µM (inactive); in the test on SN12C, > 100 µM (inactive); in the test with CAKI-1 it was > 100 µM (inactive); with 786-0 it was > 100 µM (inactive); in the test on IGROV-1 it was > 100 µM (inactive). Besides, the GI50 was 49.3 µM (inactive) in the test on NCI-H522; > 100 µM (inactive) in the test with K562; > 100 µM (inactive) in the test with A549; > 100 µM (inactive) in the test with M14; > 100 µM (inactive) with LOX IMVI; > 100 µM (inactive) with CCRF-CEM. For the same molecule, the GI50 in the test with HOP-62 and with UO-31 was > 100 µM (inactive) each time.
Turning to `CCN(CC)Cc1c(/C=C\c2cc(OC)c(OC)c(OC)c2)ccc(OC)c1O`, the GI50 is 2.29 µM (inactive) in the test on SF-539; 2.43 µM (inactive) in the test on UACC-62; 3.33 µM (inactive) in the test with HCT-116; 2.04 µM (inactive) with RXF 393; 2.16 µM (inactive) in the test with NCI/ADR-RES; 9.4 µM (inactive) in the test with TK-10. Further, the GI50 in the test on A498 was 6.22 µM (inactive); with MDA-N, 0.387 µM (active); with SN12C, 5.3 µM (inactive); in the test on CAKI-1, 4.42 µM (inactive); in the test with 786-0, 3.83 µM (inactive); in the test on IGROV-1 it was 4.2 µM (inactive). Moreover, the GI50 was 1.87 µM (inactive) with NCI-H522; 3.27 µM (inactive) in the test with K562; 4.25 µM (inactive) with A549; 2.79 µM (inactive) in the test on M14; 6.24 µM (inactive) with LOX IMVI; 6.53 µM (inactive) in the test on CCRF-CEM. The GI50 with HOP-62 was 5.02 µM (inactive); in the test on UO-31 it was 6.14 µM (inactive).
For `Brc1ccc2c(-c3nc(-c4c[nH]c5ccc(Br)cc45)cs3)c[nH]c2c1`, the GI50 with SF-539 was 5.06 µM (inactive); with UACC-62, 2.87 µM (inactive); in the test on HCT-116, 3.67 µM (inactive); in the test on RXF 393, 4.45 µM (inactive); with NCI/ADR-RES, 4.56 µM (inactive); in the test with TK-10, 5.51 µM (inactive). Moreover, the GI50 in the test on A498 is 2.41 µM (inactive); in the test with MDA-N, 4.45 µM (inactive); in the test with SN12C, 4.63 µM (inactive); in the test on CAKI-1, 4.03 µM (inactive); in the test with 786-0, 2.24 µM (inactive); with IGROV-1 it was 2.99 µM (inactive). Further, the GI50 was 1.95 µM (inactive) in the test with NCI-H522; 3.44 µM (inactive) in the test with K562; 4.14 µM (inactive) in the test on A549; 3.92 µM (inactive) in the test with M14; 2.32 µM (inactive) with LOX IMVI; 4.68 µM (inactive) in the test with CCRF-CEM. In addition, the figures for the GI50 in the test on HOP-62 and with UO-31 were 11.7 µM (inactive) and 4.1 µM (inactive), respectively.
Regarding `CC(=O)OC/C=C(\C)CCC(Br)C(C)(C)Br` (stereo not given), the GI50 in the test with SF-539, in the test on UACC-62, with HCT-116, in the test with RXF 393, with NCI/ADR-RES and in the test with TK-10 was > 10 µM (inactive) in each case. The GI50 in the test with A498, in the test with MDA-N, in the test with SN12C, in the test with CAKI-1, in the test on 786-0 and with IGROV-1 was > 10 µM (inactive) in each case. Moreover, the GI50 in the test with NCI-H522, in the test with K562, with A549, in the test with M14, with LOX IMVI and in the test with CCRF-CEM was > 10 µM (inactive) in each case. The GI50 in the test with HOP-62 was > 10 µM (inactive); in the test on UO-31, 0.001 µM (active).
For the molecule `O=C(O)c1ccc(/C=N/N=C2c3ccccc3-c3ccccc32)cc1`, the GI50 in the test with SF-539 is 31 µM (inactive); in the test with UACC-62, 61.8 µM (inactive); in the test on HCT-116, > 100 µM (inactive); with RXF 393, 89.9 µM (inactive); in the test with NCI/ADR-RES, > 100 µM (inactive); in the test on TK-10, 66.1 µM (inactive). Besides, the GI50 in the test on A498 is > 100 µM (inactive); in the test on MDA-N it was 50.9 µM (inactive); with SN12C, 31.5 µM (inactive); in the test on CAKI-1 it was 38.6 µM (inactive); in the test on 786-0 it was > 100 µM (inactive); in the test on IGROV-1, 54.8 µM (inactive). The GI50 with NCI-H522 was 60.7 µM (inactive); in the test with K562, 55.8 µM (inactive); with A549, 74 µM (inactive); in the test on M14, 67.1 µM (inactive); in the test on LOX IMVI, > 100 µM (inactive); in the test with CCRF-CEM, 44.1 µM (inactive). The GI50 with HOP-62 is 54.7 µM (inactive); in the test with UO-31, 42 µM (inactive).
As to `O=C1OCOC2(CCCC2)C1c1ccccc1` (stereo not given), the GI50 with SF-539, in the test on UACC-62, in the test on HCT-116, with RXF 393, in the test on NCI/ADR-RES and in the test with TK-10 was > 100 µM (inactive) in each case. The GI50 in the test with A498, in the test with MDA-N, with SN12C, in the test with CAKI-1, with 786-0 and with IGROV-1 was > 100 µM (inactive) in each case. Also, the GI50 in the test with NCI-H522, in the test with K562, in the test with A549, in the test with M14, with LOX IMVI and in the test on CCRF-CEM was > 100 µM (inactive) throughout. The GI50 in the test on HOP-62 and with UO-31 was > 100 µM (inactive) throughout.
As for `Cn1c(N2CCCC2)c(C=O)c(=O)n(C)c1=O`, the GI50 in the test with SF-539, with UACC-62, in the test with HCT-116, with RXF 393, in the test with NCI/ADR-RES and in the test on TK-10 was > 100 µM (inactive) each time. Also, the GI50 with A498, in the test on MDA-N, in the test on SN12C, in the test with CAKI-1, with 786-0 and in the test on IGROV-1 was > 100 µM (inactive) throughout. For the same molecule, the GI50 in the test with NCI-H522, in the test with K562, in the test with A549, in the test with M14, with LOX IMVI and in the test on CCRF-CEM was > 100 µM (inactive) in each case. For the same molecule, the GI50 in the test with HOP-62 and with UO-31 was > 100 µM (inactive) in each case.
For `CC(C)(C)c1cc(C(=O)/C=C/c2ccc3c(c2)OCO3)cc(C(C)(C)C)c1O`, the GI50 with SF-539 is 6.44 µM (inactive); with UACC-62, 6.04 µM (inactive); in the test on HCT-116, 4.51 µM (inactive); in the test with RXF 393, 1.86 µM (inactive); in the test with NCI/ADR-RES, 4.29 µM (inactive); with TK-10, 9.91 µM (inactive). In addition, the GI50 was 10.3 µM (inactive) in the test with A498; 1.98 µM (inactive) in the test on MDA-N; 10.1 µM (inactive) with SN12C; 9.29 µM (inactive) in the test on CAKI-1; 6.62 µM (inactive) with 786-0; 17.9 µM (inactive) in the test with IGROV-1. The GI50 is 11.9 µM (inactive) with NCI-H522; 5.24 µM (inactive) with K562; 9.64 µM (inactive) with A549; 8.11 µM (inactive) in the test with M14; 8.32 µM (inactive) in the test with LOX IMVI; 3.48 µM (inactive) in the test with CCRF-CEM. The GI50 is 19.4 µM (inactive) with HOP-62 and 6.38 µM (inactive) in the test on UO-31.
Turning to `[O-][n+]1onc2c1-c1nonc1CC2`, the GI50 was 25.3 µM (inactive) in the test on SF-539; 36.6 µM (inactive) with UACC-62; 20.7 µM (inactive) in the test with HCT-116; 36.1 µM (inactive) in the test with RXF 393; 42.7 µM (inactive) in the test with NCI/ADR-RES; 21.5 µM (inactive) with TK-10. In addition, the GI50 in the test with A498 was 31.7 µM (inactive); in the test with MDA-N, 46.2 µM (inactive); in the test on SN12C, 37.5 µM (inactive); in the test with CAKI-1, 69.3 µM (inactive); in the test on 786-0, 43.7 µM (inactive); in the test on IGROV-1, 38.8 µM (inactive). Further, the GI50 in the test on NCI-H522 was 31 µM (inactive); with K562, 56 µM (inactive); in the test on A549 it was 72.1 µM (inactive); in the test on M14, 25.1 µM (inactive); in the test on LOX IMVI, 22.4 µM (inactive); in the test with CCRF-CEM, 27.7 µM (inactive). The GI50 is 28.2 µM (inactive) with HOP-62 and 48.6 µM (inactive) with UO-31.
As to `CSCCCNC(=O)c1csc(-c2csc(CCNC(=O)CNC(=O)CNC(=O)CNC(=O)OC(C)(C)C)n2)n1`, the GI50 in the test on SF-539, in the test on UACC-62, in the test with HCT-116, in the test on RXF 393, in the test on NCI/ADR-RES and in the test with TK-10 was > 100 µM (inactive) each time. In addition, the GI50 with A498, in the test on MDA-N, in the test on SN12C, in the test on CAKI-1, in the test with 786-0 and in the test with IGROV-1 was > 100 µM (inactive) throughout. The GI50 in the test with NCI-H522, in the test with K562, in the test on A549, in the test on M14, in the test on LOX IMVI and in the test with CCRF-CEM was > 100 µM (inactive) in each case. Besides, the GI50 with HOP-62 and with UO-31 was > 100 µM (inactive) each time.
